Reference: the NIST ThermoML archive (doi:10.1021/je900596d)

Details: 355.18 K, Liquid, Vibrating tube method

FC(F)=C(F)C(F)(F)F [hexafluoropropene]
Details | mass density [kg/m3]
3539.3 kPa | 945.7
3560.5 kPa | 947.64
3582.1 kPa | 949.46
3603.9 kPa | 951.17
3625.9 kPa | 953.18
3667.2 kPa | 956.48
3687.7 kPa | 958.15
3708.3 kPa | 959.83
3730.3 kPa | 961.36
3751.6 kPa | 963.12
3773.4 kPa | 964.61
3795.3 kPa | 966.25
3807.5 kPa | 967.13
3828.9 kPa | 968.54
3851.4 kPa | 970.11
3873.7 kPa | 971.7
3916.8 kPa | 974.54
3938.9 kPa | 976.09
3959.3 kPa | 977.28
3981 kPa | 978.83
4015.2 kPa | 980.9
4033.6 kPa | 981.94
4071.4 kPa | 984.1
4091.9 kPa | 985.37
4110.7 kPa | 986.72
4129.8 kPa | 987.54
4149.4 kPa | 988.81
4167.6 kPa | 989.92
4186.6 kPa | 990.96
4206.8 kPa | 992.1
4226.2 kPa | 992.98
4244.6 kPa | 994.12
4263.6 kPa | 995.02
4281.8 kPa | 995.99
4338 kPa | 998.86
4375.5 kPa | 1000.94
4413 kPa | 1002.73
4449.8 kPa | 1004.57
4487.2 kPa | 1006.43
4525 kPa | 1008.13
4562.1 kPa | 1009.97
4599 kPa | 1011.6
4638.8 kPa | 1013.65
4677.4 kPa | 1015.25
4716.6 kPa | 1016.92
4794.9 kPa | 1020.36
4873.9 kPa | 1023.7
4913.4 kPa | 1025.32
4951 kPa | 1026.84
4991.2 kPa | 1028.51
5029.8 kPa | 1029.94
5070.6 kPa | 1031.42
5113 kPa | 1033.05
5154.1 kPa | 1034.66
5236.8 kPa | 1037.65
5275.8 kPa | 1039.14
5316.9 kPa | 1040.61
5355.6 kPa | 1041.9
5398.7 kPa | 1043.42
5439.2 kPa | 1044.89
5483.2 kPa | 1046.3
5561 kPa | 1048.84
5601.4 kPa | 1050.18
5642.3 kPa | 1051.53
5684.6 kPa | 1052.92
5724.6 kPa | 1054.21
5768.2 kPa | 1055.5
5808.2 kPa | 1056.73
5848.7 kPa | 1058.05
5893.8 kPa | 1059.3
5935.5 kPa | 1060.51
5972.8 kPa | 1061.59
6013.5 kPa | 1062.81
6113.5 kPa | 1065.75
6163.2 kPa | 1067.09
6213.3 kPa | 1068.54
6263.6 kPa | 1069.94
6313.1 kPa | 1071.25
6362.4 kPa | 1072.65
6411 kPa | 1074
6461.2 kPa | 1075.29
6562.7 kPa | 1077.95
6611.5 kPa | 1079.21
6661.1 kPa | 1080.53
6710.9 kPa | 1081.81
6761.1 kPa | 1083.05
6812.8 kPa | 1084.3
6865.2 kPa | 1085.67
6915.7 kPa | 1086.78
6965.9 kPa | 1088.01
7014.9 kPa | 1089.29
7065.8 kPa | 1090.44
7164.6 kPa | 1092.85
7216.4 kPa | 1093.92
7265.8 kPa | 1095.06
7366.2 kPa | 1097.33
7415.2 kPa | 1098.43
7466 kPa | 1099.6
7516.3 kPa | 1100.77
7566.3 kPa | 1101.91
7616.2 kPa | 1102.85
7718.1 kPa | 1105.05
7768.7 kPa | 1106.11
7817.3 kPa | 1107.12
7868.8 kPa | 1108.17
7921.6 kPa | 1109.13
7971.5 kPa | 1110.3
8069.1 kPa | 1112.3
8121.2 kPa | 1113.23
8171.1 kPa | 1114.28
8220.8 kPa | 1115.22
8273.9 kPa | 1116.3
8324.3 kPa | 1117.22
8376.9 kPa | 1118.25
8428.6 kPa | 1119.32
8478.5 kPa | 1120.28
8528.9 kPa | 1121.22
8578.5 kPa | 1122.06
8628.9 kPa | 1123.04
8681.5 kPa | 1124
8731.5 kPa | 1124.98
8781.2 kPa | 1125.78
8835.2 kPa | 1126.86
8886.8 kPa | 1127.78
8989.2 kPa | 1129.56
9039.4 kPa | 1130.46
9089.8 kPa | 1131.27
9138.1 kPa | 1132.17
9187.7 kPa | 1132.92
9238.4 kPa | 1133.87
9290.5 kPa | 1134.77
9339.3 kPa | 1135.6
9390.7 kPa | 1136.39
9440.4 kPa | 1137.24
